Experimental data: ChEMBL document CHEMBL5360542, “Current development of β-carboline derived potential antimalarial scaffolds” (Eur J Med Chem, 2023)
Values after ≈ are worked out from the molar mass of the structure shown.

Assays:
Plasmodium falciparum [1] = assay: Antimalarial activity against artemisinin-resistant Plasmodium falciparum R539T infected in O positive erythrocytes assessed as reduction in parasite growth incubated for 48 hrs by giemsa staining based assay; format: functional, organism-based; settings: Erythrocyte
Plasmodium falciparum [2] = assay: Antimalarial activity against artemisinin-sensitive parental Plasmodium falciparum 3D7 infected in O positive erythrocytes assessed as reduction in parasite growth incubated for 48 hrs by giemsa staining based assay; format: functional, organism-based; settings: 3D7, Erythrocyte
[3] = Selectivity index, ratio of IC50 for chloroquine-resistant Plasmodium falciparum RKL-9 transfected in A positive human erythrocytes to IC50 for chloroquine-sensitive Plasmodium falciparum 3D7 transfected in A positive human erythrocytes; format: functional
[4] = Cytotoxicity against human dermal fibroblast cultured as 2D cells assessed as inhibition of cell growth incubated for 48 hrs by MTT assay; format: toxicity, cell-based; settings: human dermal fibroblasts cultured as 2D cells
Plasmodium berghei [5] = assay: (§1) Antiplasmodial activity against Plasmodium berghei NK-65 infected in Swiss albino mouse assessed as mean survival time of mouse at 100 mg/kg, po administered once daily for 4 days followed by artesunate addition at 50 mg/kg for 60 mins and measured 24 hrs post last dose by giemsa staining based analysis; format: functional; settings: time 5 day
Plasmodium falciparum [6] = assay: Antimalarial activity against chloroquine-resistant Plasmodium falciparum RKL-9 transfected in A positive human erythrocytes assessed as reduction in schizont maturation incubated for 48 hrs by giemsa stain based assay; format: functional, organism-based; settings: RKL-9, 48 h
Plasmodium falciparum [7] = assay: Antimalarial activity against chloroquine-sensitive Plasmodium falciparum 3D7 transfected in A positive human erythrocytes assessed as reduction in schizont maturation incubated for 48 hrs by giemsa stain based assay; format: functional, organism-based; settings: 3D7, 48 h
Plasmodium berghei [8] = assay: as §1, with “as reduction” for “as mean survival time”, “of parasitaemia” for “of mouse”, “analysis relative to control” for “analysis”; format: functional; design: scale not given: the % may be the effect or the level left; settings: time 5 day
Plasmodium falciparum [9] = assay: Antimalarial activity against chloroquine-sensitive Plasmodium falciparum […] assessed as reduction in parasite growth; format: functional, organism-based
Plasmodium falciparum [10] = assay: Antimalarial activity against chloroquine-sensitive Plasmodium falciparum 3D7 by SYBR green assay; format: functional, organism-based
Plasmodium falciparum [11] = assay: Antimalarial activity against Plasmodium falciparum NF54 infected in human erythrocytes assessed as reduction in parasitemia incubated for 48 hrs by [3H]-hypoxanthine based liquid scintillation counting analysis; settings: NF54, Erythrocyte

COc1ccc(C2NCCc3c2[nH]c2ccccc32)cc1OC (stereo not drawn)
IC50 (Plasmodium falciparum [1]): 2.99 µM
IC50 (Plasmodium falciparum [2]): 3.03 µM

COC(=O)[C@@H]1Cc2c([nH]c3ccccc23)[C@@H](c2ccc3c(c2)OCO3)N1
Selectivity Index [3]: >10
CC50 at 48 h [4]: > 640 µg/mL
Survival (Plasmodium berghei [5]): 25.8 days
IC50 (Plasmodium falciparum [6]): < 1 µg/mL
IC50 (Plasmodium falciparum [7]): < 1 µg/mL
Activity (Plasmodium berghei [8]): 99.69%

O=C(O)CCc1nccc2c1[nH]c1ccccc12
IC50 (Plasmodium falciparum [9]): 0.0767 µg/mL (≈ 0.319 µM)

O=C(c1c[nH]c2ccc(O)cc12)c1nccc2c1[nH]c1ccc(O[C@@H]3O[C@H](CO)[C@@H](O)[C@H](O)[C@H]3O)cc12
IC50 (Plasmodium falciparum [10]): 5 µM

Clc1cc(Cl)c(Cl)c(C2NCCc3c2[nH]c2ccccc32)c1 (stereo not drawn)
IC50 (Plasmodium falciparum [1]): 4.89 µM
IC50 (Plasmodium falciparum [2]): 3.43 µM

C[C@H]1Cc2c([nH]c3cc(Cl)c(F)cc23)[C@@]2(N1)C(=O)Nc1ccc(Cl)cc12 [CIPARGAMIN]
IC50 (Plasmodium falciparum [11]): 0.0005 µM
